In publication PMC9574867, “Discovery and Characterization of Synthesized and FDA-Approved Inhibitors of Clostridial and Bacillary Collagenases” (Journal of Medicinal Chemistry, 2022):
Entries after “also recorded” stand apart in the source; their conditions may differ.

tested on: MDCK II cells challenged with B. cereus AH187 supernatant; format: cell-based, canine

Structure (SMILES)	TEER of MDCK II cells challenged with supernatant
O=P(O)(O)c1nc2ccc(Br)cc2nc1P(=O)(O)O [Compound 10, (6-Bromoquinoxaline-2,3-diyl)bis(phosphonic acid)]	retain the TEER of the challenged cells
Cc1ccc2nc(P(=O)(O)O)c(P(=O)(O)O)nc2c1 [Compound 11, (6-Methylquinoxaline-2,3-diyl)bis(phosphonic acid)]	maintained the TEER of MDCK II cells challenged with B. cereus supernatant
O=P(O)(O)c1nc2cc(Cl)c(Cl)cc2nc1P(=O)(O)O [Compound 13, (6,7-Dichloroquinoxaline-2,3-diyl)bis(phosphonic acid)]	retain the TEER of the challenged cells; also recorded: maintained the TEER of MDCK II cells challenged with B. cereus supernatant
O=P(O)(O)c1nc2ccc(-c3ccc(Cl)cc3)cc2nc1P(=O)(O)O [Compound 15, (6-(4-Chlorophenyl)quinoxaline-2,3-diyl)bis(phosphonic acid)]	maintained the TEER of MDCK II cells challenged with B. cereus supernatant
O=P([O-])(O)C(Sc1ccc(Cl)cc1)P(=O)([O-])O.[Na+].[Na+] [Tiludronate disodium, reference compound]	maintained the TEER of MDCK II cells challenged with B. cereus supernatant
